According to US12576030B2, “Compositions for delivery of codon-optimized mRNA” (Translate Bio, Inc., priority 2020, dated 2026):
Entries after “also recorded” stand apart in the source; their conditions may differ.

System: male CD1 mice
Assay: Luciferase radiance in lung after pulmonary delivery of FFL mRNA-LNPs
Assay type: in vivo
Settings: for potency as determined by the average radiance detected in mouse lungs: FFL mRNA-LNP, single intratracheal administration via nebulization, about 5 hours post-dose
Description: About 150 cationic lipids were tested. (FIG. 7). Each cationic lipid was used in preparing lipid nanoparticles encapsulating mRNA encoding firefly luciferase protein (FFL mRNA) according to methods known in the art. For example, suitable methods for mRNA encapsulation include methods described in International Publication Nos. WO2016/004318 and WO 2018/089801, which is hereby incorporated by reference in its entirety. The tested lipid nanoparticles comprised a lipid component consisting of a cationic lipid, a non-cationic lipid (DOPE), a PEG-modified lipid (DMG-PEG2K), and optionally cholesterol.
Lipid nanoparticle formulations comprising FFL mRNA were administered to male CD1 mice by a single intratracheal administration via nebulization using a Microsprayer®. At approximately 5 hours post-dose, the animals were dosed with luciferin by intraperitoneal injection and all animals were imaged using an IVIS imaging system to measure luciferase production in the lung. […] Some cationic lipids remarkably had greater than 50-fold increase in pulmonary protein expression as compared to other cationic lipids.

Compound | historical radiance/expression of pulmonary-delivered FFL mRNA in LNP (LNP comprising the named cationic lipid, pulmonary-delivered (e.g., nebulized)) | potency as determined by the average radiance detected in mouse lungs | potency as determined by the average radiance detected in mouse lungs (listed as REP-E3-E10)
CC(C)CCCC(C)C1CCC2C3CC=C4CC(OC(=O)CCc5cnc[nH]5)CCC4(C)C3CCC12C (centres unmarked) [ICE, imidazole cholesterol ester, reference compound] | around 10^4 p/s/cm^2sr |  | 
CCCCCCCCCCCCCCOC(=O)CC(CC(=O)OCCCCCCCCCCCCCC)(OC(=O)CCN(C)C)C(=O)OCCCCCCCCCCCCCC [TL1-04D-DMA] |  | performed particularly well; also recorded: particularly high potency | 
CCCCCCCCOC(=O)CC(CC(=O)OCCCCCCCC)(OC(=O)CCN(C)C)C(=O)OCCCCCCCC [TL1-01D-DMA, trioctyl 2-((3-(dimethylamino)propanoyl)oxy)propane-1,2,3-tricarboxylate] |  | performed particularly well; also recorded: particularly high potency | 
CCCCCCCCC(O)CN(CCCC(=O)OCCN1CC(C)N(CCOC(=O)CCCN(CC(O)CCCCCCCC)CC(O)CCCCCCCC)CC1C)CC(O)CCCCCCCC (centres unmarked) [HEP-E3-E10] |  | performed particularly well | particularly high potency
CCCCC/C=C\C/C=C\CCCCCCCC(=O)OCC(COC(=O)CCCCCCC/C=C\C/C=C\CCCCC)(COC(=O)CCCCCCC/C=C\C/C=C\CCCCC)NCCS(=O)(=O)NCCCN(C)C [GL-TES-SA-DMP-E18-2] |  | performed particularly well; also recorded: particularly high potency | 
CCCCCCCCC(O)CN(CCCCC(=O)OCCN1CC(C)N(CCOC(=O)CCCCN(CC(O)CCCCCCCC)CC(O)CCCCCCCC)CC1C)CC(O)CCCCCCCC (centres unmarked) [HEP-E4-E10] |  | performed particularly well; also recorded: particularly high potency | 
CCCCC/C=C\C/C=C\CCCCCCCC(=O)OCC(COC(=O)CCCCCCC/C=C\C/C=C\CCCCC)(COC(=O)CCCCCCC/C=C\C/C=C\CCCCC)NCCS(=O)(=O)NCCN(C)C [GL-TES-SA-DME-E18-2, 2-((2-(N-(2-(dimethylamino)ethyl)sulfamoyl)ethyl)amino)-2-((((9Z,12Z)-octadeca-9,12-dienoyl)oxy)methyl)propane-1,3-diyl (9Z,9′Z,12Z,12′Z)-bis(octadeca-9,12-dienoate)] |  | performed particularly well; also recorded: particularly high potency | 
